Assay in all cases: MIC assessment, microdilution
What all share (format): cell-based
Common to all, as to settings: 48 h, 37°C, MFC same as MIC
In general terms: Dilution methods test growth across graded concentrations, often in twofold steps.

In one experiment the test system is C. tropicalis 5. Here is the method:
(§1) Antifungal activity was assessed using the standard microdilution method determining the minimum inhibitory concentrations (MICs) of the tested samples leading to inhibition of yeast growth. Disposable microtiter plates were used for the tests. The samples were diluted in brain heart infusion broth (HiMedia). […] C. albicans, C. krusei, C. tropicalis and C. parapsilosis. […] Subsequently, 100 µL were transferred into the first microplate well and serially diluted by a factor of 2. The prepared microplates were inoculated with a standard amount of the tested Candida spp. – the inoculum density in a well was equal to 10^5 CFU/mL. […] The minimum fungicidal concentration (MFC) is the minimum concentration of the sample required to kill the yeast after a defined period of incubation. The MFCs were determined by the inoculation method. With an applicator, 10 µL were transferred from the microplate wells with defined concentrations of the tested sample and inoculated onto Sabouraud agar (Trios). The MFC was determined as the lowest concentration that inhibited the visible growth of the used yeast. For growth curve assessment, the samples were serially diluted in 96-well microtiter plates. […] Absorbance (630 nm) was measured every hour during 24 hours and the obtained values were used to plot growth curves

The test system of the next experiment is C. albicans 1. Here is the method: as §1
A further experiment has as its system C. albicans 978. How it is done: as §1

Converted amounts (≈) assume the structure as drawn.

As to `CC(=O)N1CCN(c2ccc(OC[C@H]3CO[C@](Cn4ccnc4)(c4ccc(Cl)cc4Cl)O3)cc2)CC1` [(+)-KET, (2R,4S)-(+)-KET], the MIC/MFC in the experiment on C. tropicalis 5 is 3.13 µM (≈ 1.66 µg/mL); in the experiment on C. albicans 1, 25 µM (≈ 13.3 µg/mL); in the experiment with C. albicans 978, 25 µM (≈ 13.3 µg/mL).

These data come from article PMC4084896 (PLoS ONE, 2014).
